Measured values published in PubChem BioAssay AID1199 (EPA DSSTox, 2008).
Activity calls are given as the source filed them.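 The calls were made as follows: active = a tumour-causing dose and a tumour site recorded for mice in at least one sex group; inconclusive = only government mouse studies exist and were judged inadequate; inactive = mouse studies exist but none gave tumours.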

system: mouse carcinogenicity bioassay, TD50 from CPDB; assay: DSSTox (CPDBAS) Carcinogenic Potency Database Summary Mouse Bioassay Results; details: TD50_Mouse_Note: TD50 is harmonic mean of more than one positive test; TD50_Mouse_mmol was not calculated for this mixture, but Activiity; TargetSites_Mouse_Female: liver
Excerpt: The Carcinogenic Potency Database (CPDB) is a unique and widely used international resource of the results of over 6500 chronic, long-term animal cancer tests on over 1500 chemical substances. The CPDB provides easy access to the bioassay literature, with qualitative and quantitative analyses of both positive and negative experiments that have been published over the past 50 years in the general literature and by the National Cancer Institute/National Toxicology Program. The CPDB standardizes the diverse literature of cancer bioassays that vary widely in protocol, histopathological examination and nomenclature, and in the published author's choices of what information to provide in their papers. Results are reported in the CPDB for tests in rats, mice, hamsters, dogs, and nonhuman primates, and are based on the most positive result among all experiments for each sex-species. The DSSTox CPDBAS (all species) file incorporates data from the CPDB Summary Tables for the full list of over 1500 chemical substances tested in at least one species. Summary bioassay results for Mouse (TD50, tumor sites, male, female, both sexes) are provided in the CPDB Summary Tables and the DSSTox CPDBAS file for over 1000 chemical substances.
TD50 is a standardized quantitative measure of carcinogenic potency (analogous to an LD50) and is reported in the CPDB Summary Table for each species. Activity Score for actives is computed by mapping of LOG10 (1/TD50_Mouse_mmol) activity values spanning range [MIN, MAX] onto Integer 1-100 Activity Score range, where 100 is highest potency and 1 is lowest: Activity Score = 100 * INTEGER[(log10(1/Activity) - MIN)/(MAX […] MIN)]. If activity is reported but no TD50_Mouse_mmol value is computed, such as for a mixture, the Activity Score is assigned the activity value "50". […] Target sites are reported for each sex-species group with a positive result in the CPDB on the basis of a positive author's opinion for the particular site, using all results from both the general literature and NCI/NTP bioassays. If a chemical has two or more target sites listed, the results may be from different experiments, and a single site may be a target organ in more than one experiment, as well. Blank entry in TargetSites field indicates no results reported.

Structure (SMILES) | outcome
C=C1C(CCl)(CCl)C2(Cl)C(Cl)C(Cl)C1(Cl)C2(Cl)Cl (stereo unspecified) | active; liver

same assay, conditions: TD50_Mouse_Note: TD50 is harmonic mean of more than one positive test; TargetSites_Mouse_Female: adrenal gland; liver

Structure (SMILES) | Potency
N=C1C=CC(=C(c2ccc(N)cc2)c2ccc(N)cc2)C=C1 | 0.159 mmol/kg/day
c1ccoc1 | 0.04 mmol/kg/day

same assay, conditions: TD50_Mouse_Note: TD50 is harmonic mean of more than one positive test; TargetSites_Mouse_Female: adrenal gland; liver; vascular system

Structure (SMILES) | Potency
Oc1c(Cl)c(Cl)c(Cl)c(Cl)c1Cl | 0.0901 mmol/kg/day

same assay, conditions: TD50_Mouse_Note: TD50 is harmonic mean of more than one positive test; TargetSites_Mouse_Female: hematopoietic system; lung; myocardium

Structure (SMILES) | Potency
CC(C)CCC[C@@H](C)[C@H]1CC[C@H]2[C@@H]3CC=C4C[C@@H](OC(=O)Cc5ccc(N(CCCl)CCCl)cc5)CC[C@]4(C)[C@H]3CC[C@]12C | 0.000955 mmol/kg/day

same assay, conditions: TD50_Mouse_Note: TD50 is harmonic mean of more than one positive test; TargetSites_Mouse_Female: large intestine; liver; vascular system

Structure (SMILES) | Potency
Cc1ccccc1[N+](=O)[O-] | 0.933 mmol/kg/day

same assay, conditions: TD50_Mouse_Note: TD50 is harmonic mean of more than one positive test; TargetSites_Mouse_Female: liver

Structure (SMILES) | Potency
Cc1ccc(N)cc1N | 1.04 mmol/kg/day
Nc1cc(Cl)c(N)c(Cl)c1 | 4.54 mmol/kg/day
Brc1cc(Br)c(-c2cc(Br)c(Br)cc2Br)cc1Br | 0.000529 mmol/kg/day
ClC(Cl)=C(Cl)Cl | 0.953 mmol/kg/day
NC(=O)OCC(COC(N)=O)c1ccccc1 | 31.1 mmol/kg/day

same assay, conditions: TD50_Mouse_Note: TD50 is harmonic mean of more than one positive test; TargetSites_Mouse_Female: liver; lung

Structure (SMILES) | Potency
CNN | 0.164 mmol/kg/day

same assay, conditions: TD50_Mouse_Note: TD50 is harmonic mean of more than one positive test; TargetSites_Mouse_Female: liver; thyroid gland

Structure (SMILES) | Potency
Nc1ccc(Sc2ccc(N)cc2)cc1 | 0.153 mmol/kg/day
Clc1cc2c(cc1Cl)Oc1cc(Cl)c(Cl)cc1O2 | 4.85e-07 mmol/kg/day

same assay, conditions: TD50_Mouse_Note: TD50 is harmonic mean of more than one positive test; TargetSites_Mouse_Female: liver; urinary bladder

Structure (SMILES) | Potency
Nc1ccc(-c2ccccc2)cc1 | 0.0124 mmol/kg/day

same assay, conditions: TD50_Mouse_Note: TD50 is harmonic mean of more than one positive test; TargetSites_Mouse_Female: liver; vascular system

Structure (SMILES) | Potency
Oc1c(Cl)c(Cl)c(Cl)c(Cl)c1Cl | 0.0864 mmol/kg/day
Cc1cc2c(nc1N)[nH]c1ccccc12 | 0.0863 mmol/kg/day

same assay, conditions: TD50_Mouse_Note: TD50 is harmonic mean of more than one positive test; TargetSites_Mouse_Female: lung

Structure (SMILES) | Potency
CNN | 0.0189 mmol/kg/day

same assay, conditions: TD50_Mouse_Note: TD50 is harmonic mean of more than one positive test; TargetSites_Mouse_Female: lung; vascular system

Structure (SMILES) | Potency
COC(=O)C1=CCCN(C)C1 | 0.206 mmol/kg/day

same assay, conditions: TD50_Mouse_Note: TD50 is harmonic mean of more than one positive test; TargetSites_Mouse_Female: stomach

Structure (SMILES) | Potency
Oc1ccccc1O | 2.22 mmol/kg/day
ClCc1ccccc1 | 0.486 mmol/kg/day
C=CC(=O)OCC | 3.24 mmol/kg/day

same assay, conditions: TD50_Mouse_Note: TD50 is harmonic mean of more than one positive test; greater than ten-fold variation among TD50 values for positive res; TargetSites_Mouse_Female: hematopoietic system; liver; lung

Structure (SMILES) | Potency
Clc1ccc(C(c2ccc(Cl)cc2)C(Cl)(Cl)Cl)cc1 | 0.0361 mmol/kg/day

same assay, conditions: TD50_Mouse_Note: TD50 is harmonic mean of more than one positive test; greater than ten-fold variation among TD50 values for positive res; TargetSites_Mouse_Female: liver; lung

Structure (SMILES) | Potency
O=S(=O)(O)O | 0.0583 mmol/kg/day

same assay, conditions: TD50_Mouse_Note: TD50 is harmonic mean of more than one positive test; greater than ten-fold variation among TD50 values for positive res; TargetSites_Mouse_Female: vascular system

Structure (SMILES) | Potency
Cc1cc(Cl)ccc1N | 0.145 mmol/kg/day

same assay, conditions: TD50_Mouse_Note: no positive results

Structure (SMILES) | outcome
Cc1cc(N=Nc2ccccc2C)ccc1N | inactive; no positive results

same assay, conditions: TD50_Mouse_Note: no positive results; TargetSites_Mouse_Female: no positive results

Structure (SMILES) | outcome
O=[N+]([O-])c1ccc(Nc2ccc(Nc3ccccc3)c(S(=O)(=O)O)c2)c([N+](=O)[O-])c1 | inactive; no positive results
Cc1cccc(C)c1 | inactive; no positive results
C=CCCl | inactive; no positive results
O=C1OC(=O)c2ccccc21 | inactive; no positive results
CNC(=O)O/N=C/C(C)(C)SC | inactive; no positive results
CN[C@@H](C)[C@H](O)c1ccccc1 | inactive; no positive results
C[C@]12C=CC(=O)C=C1CC[C@@H]1[C@@H]2C(=O)C[C@@]2(C)[C@H]1CC[C@]2(O)C(=O)CO | inactive; no positive results
CNC(=O)O/N=C(\SC)C(=O)N(C)C | inactive; no positive results
CC1=C(C(=O)OCCN(Cc2ccccc2)c2ccccc2)C(c2cccc([N+](=O)[O-])c2)C(P2(=O)OCC(C)(C)CO2)=C(C)N1 (stereo unspecified) | inactive; no positive results
CCn1cc(C(=O)O)c(=O)c2ccc(C)nc21 | inactive; no positive results
O.O=S(=O)([O-])[O-].[Mn+2] | inactive; no positive results
Oc1c(Cl)c(Cl)c(Cl)c(Cl)c1Cl | inactive
O=C1CN=C(c2ccccc2)c2cc(Cl)ccc2N1CC1CC1 | inactive; no positive results
O=C(Oc1ccccc1)Oc1ccccc1 | inactive; no positive results
c1ccc(Nc2ccc3ccccc3c2)cc1 | inactive; no positive results
